Experimental data reported in article PMC9260667, “Thioredoxin Reductase Inhibitors as Potential Antitumors: Mercury Compounds Efficacy in Glioma Cells” (Frontiers in Molecular Biosciences, 2022).
Where two headings read alike, the source gives them in different places.

Key:
Assay type in all cases: cell-based, mouse
GL261 cells [1] = assay: ROS production (H2DCFDA assay); conditions: GL261, 3 h exposure, 0.5-5 µM
Description: The assessment of general ROS production was based on the 2′,7′-dichlorodihydrofluorescein diacetate (H2DCFDA) assay ([Huang et al., 2014]).
Cells (8 × 10^4) were plated in black 96-well microplates and then incubated at 37°C for 24 h. Afterwards, the medium was removed, the cells were washed twice with PBS 1x, and culture media with DHCF-DA ([…]) was added to each well followed by a 40 min incubation at 37°C. After the incubation period, the DHCF-DA containing media was removed and the wells were washed twice with PBS 1x before being replenished with fresh medium. This was followed by exposure of cells to Hg compounds (EtHg and TmHg 0.5; 1, 2.5; and 5 µM) for 3 h using 1 mM H2O2 as a positive control. The fluorescence signal was read in a microplate reader (Zenyth 3100, Anthos Labtec Instruments) using 495 nm as the excitation wavelength and 529 nm as the emission wavelength.

GL261 cells [2] = assay: Guava ViaCount assay, apoptotic cells; conditions: GL261, 24 and 48 h exposure
Description: The ViaCount Assay was used to distinguish viable and non-viable cells based on the differential permeability of two dyes in the Guava ViaCount Reagent. The membrane-permeant dye stains all nucleated cells, leaving the cellular debris unstained, while the membrane-impermeant dye brightly stains damaged cells, thus indicating apoptotic and dying cells. GL261 cells (6 × 10^4) were seeded for 24 h in 24-well plates and thereafter were exposed to the TmHg and EtHg for 24 and 48 h. Following treatment, cells were collected from plates along with cell culture supernatants and centrifuged for 5 min (650 g). Supernatants were discarded and the cells were resuspended in phosphate-buffered saline (PBS) containing 2% FBS. Subsequently, 15 μL of cell suspension were mixed with 135 μL of Guava ViaCount reagent and incubated for 5 min at room temperature. Sample acquisition and data analysis were performed with the Guava easyCyte 5HT flow cytometer (GuavaTechnologies, Inc., Hayward, CA, United States) using the ViaCount software module.

Prx2 = Prx2 redox state (dimer/monomer, non-reducing Western blot); conditions: GL261, 1 and 2 μM, 24 h
Description: To evaluate the Prx2 redox state, cells were lysed in lysis buffer containing NEM (N-ethylmaleimide; Sigma) and, subsequently, the soluble protein fraction was separated by non-reducing SDS-PAGE electrophoresis, followed by transfer to a nitrocellulose membrane, after blockage with milk and incubation with the respective antibodies–Prx2 mouse monoclonal IgG (sc-515428, Sta. Cruz) and goat anti-mouse IgG-HRP (sc-2005, Sta. Cruz)—as previously described ([Brown et al., 2008]). The ratio between the bands of the Prx2 dimer and monomer was quantified for each sample using the Bio-Rad Quantity One software.

Caspase-3 = Caspase-3 activity (DEVD-pNA assay) in lysates of exposed GL261 cells; conditions: GL261, 5 µM, 24 h
Description: Caspase-3 activity was determined by measuring the enzymatic cleavage of chromophore p-nitroanilide (pNA) from the substrate N-acetyl-Asp-Glu-Val-Asp-pNA (DEVD-pNA) ([Borralho et al., 2007]).
This activity was determined based on a proteolytic reaction previously described ([Borralho et al., 2007]) with some modifications. In this assay total cell lysates were used, where cells were exposed to the TmHg and EtHg (1; 2 and 5 µM) for 24 h. This reaction was performed in an isolation buffer, containing 100 μg of cytosolic protein of cellular lysates, 50 μM of DTT, and […] of DEVD-pNA (Sigma-Aldrich). Next, the reaction mixtures were incubated at 37°C for 3 h. Finally, the pNa formation was measured at 405 nm using a microplate reader (Zenyth 3100, Anthos Labtec Instruments) ([Borralho et al., 2007]).

GL261 cells [3] = assay: cells; conditions: read-out: IC50 (MTT assay)
Description: The effect of TmHg and EtHg on the viability of GL261 and N9 cells was evaluated by the MTT assay as previously described ([Branco et al., 2014]). Briefly, cells (5 × 10^3) were seeded in 96-well plates (Nunc®) and incubated at 37°C for 24 h to allow proper adherence to plates. Afterwards, TmHg and EtHg (0, 0.5, 1, 2.5, and 5 μM) were added to wells. The same procedure was carried out to evaluate the effect of TMZ on the cellular viability of GL261 and DMSO at a final concentration of 0.1% was added as a control group. For co-exposure, the addition of the mercury compounds (EtHg—1 and 2 μM; TmHg—1 and 2 µM) under study followed the addition of TMZ (200 µM).
Cell viability was determined at the time of addition of the compounds (0 h) and after 24, 48, and 72 h of exposure by adding MTT to a final concentration of 400 μg/ml per well and incubating at 37°C for 4 h. After incubation, the medium was removed, and the formazan crystals were dissolved in a 4:1 DMSO/glycine buffer (pH 10.5). After shaking for 15 min, the viability was evaluated through the measurement of formazan absorption at 550 nm on a microplate reader (Zenyth 3100, Anthos Labtec Instruments) ([Branco et al., 2014]).
The IC50 is the concentration of a compound that decreases MTT reduction by 50% relative to the non-treated control at each time point.

C[CH2][Hg] [EtHg, ethylmercury]
ROS production (GL261 cells [1]): concentration-dependent increase
increase in number of apoptotic cells compared to control (GL261 cells [2]): > 50%
increase in Prx2 dimerization relative to non-treated control (Prx2): 20–40%
increase of caspase-3 activity (Caspase-3): up to 50%
IC50 (GL261 cells [3]; GL261, 24 h exposure): 2700 ± 300 nM
IC50 (GL261 cells [3]; GL261, 48 h exposure): 2400 ± 400 nM
IC50 (GL261 cells [3]; GL261, 72 h exposure): 970 ± 70 nM

C[CH2][Hg][S]c1ccccc1C(=O)[O-].[Na+] [TmHg, thimerosal]
ROS production (GL261 cells [1]): concentration-dependent increase
increase in number of apoptotic cells compared to control (GL261 cells [2]): > 50%
increase in Prx2 dimerization relative to non-treated control (Prx2): 20–40%
increase of caspase-3 activity (Caspase-3): up to 50%
IC50 (GL261 cells [3]; GL261, 24 h exposure): 2500 ± 400 nM
IC50 (GL261 cells [3]; GL261, 48 h exposure): 2500 ± 400 nM
IC50 (GL261 cells [3]; GL261, 72 h exposure): 920 ± 100 nM
